Values quoted from earlier work in patent publication CN117800914A, “一种抗SARS-CoV-2病毒奥密克戎突变种抑制剂” (Second Military Medical University SMMU, priority 2023, dated 2024).

System: COVID-19
Conditions: early use, cited from earlier work

SMILES: CCC(CC)COC(=O)[C@H](C)N[P@](=O)(OC[C@H]1O[C@@](C#N)(c2ccc3c(N)ncnn23)[C@H](O)[C@@H]1O)Oc1ccccc1 [瑞德西韦]
- reduction of risk of severe COVID-19: 87%

SMILES: CC(C)C(=O)OC[C@H]1O[C@@H](n2ccc(NO)nc2=O)[C@H](O)[C@@H]1O [莫那匹韦]
- reduction of risk of hospitalization/death (in words) (mild to moderate patients at risk of progression): 可降低住院/死亡风险
